Square brackets hold non-standard residues; d marks the D form. Peptide text beside a SMILES is read from it. * marks the point of attachment. Ala(1H-tetrazol-5-yl) = N[C@@H](Cc1nnn[nH]1)C(=O)O; Nle = CCCC[C@H](N)C(=O)O; Ms = CS(=O)(=O)*
Assay: Peptide stability tests 2 and 3: Tris buffer pH 7.0, stored at 60° C., HPLC conditions 2
Type: physicochemical
Details: Tris buffer pH 7.0, 60° C.
Experimental: (§1) Peptides 1, 2 and 6 to 9 synthesized in Example 2 were weighed and dissolved in Tris buffer (pH 7.0) to prepare 1.0 mM peptide solutions. The solutions were filtered with a Chromatdisk (product of Merck Millipore, Millex-GV, 0.22 μm). Each filtrate was diluted to 100 μM with Tris buffer (pH 7.0) and dispensed into a tube (Protein LoBind Tube by Eppendorf Co.). The prepared peptide solutions were incubated for 1 week or 2 weeks in a 60° C. thermostatic bath to obtain stored samples. A simultaneously prepared sample among the peptide solutions that was not stored was used as a standard sample (initial sample). The standard sample and the stored samples were stored at −30° C. until sample analysis.
Each stored sample was measured under the following HPLC analysis conditions 2, and the survival rate after correction for water for each peptide among the stored samples was calculated in the same manner as Example 3.
Column: XSelect CSH C18 by Waters Co., 5 μm, 4.6×250 mm
Guard column: XSelect CSH C18 by Waters. Co., 5 μm, 4.6×20 mm Guard Cartridge
Detection wavelength: 220 nm
Mobile phase A: 0.1% formic acid in water
Mobile phase B: 0.1% formic acid in acetonitrile
Measuring time: 20 minutes
Measuring sample injection rate: 50 μL
Column temperature: 40° C.
Mobile phase delivery: The mixing ratio of mobile phase A and mobile phase B was varied as shown in Table 5 for linear concentration gradient control.
as §1, with “Peptides 12 to 25, 27” for “Peptides 1, 2”, “and 28” for “and 6 to 9”, “for one” for “for 1”
The survival rate after correction for water for each peptide among the stored samples was calculated in the same manner as Example 4, and the results are shown in Table 7.
as §1, with “29” for “1, 2 and 6”, “34” for “9”, “for” for “for 1 week or”
The survival rate after correction for water for each peptide among the stored samples was calculated in the same manner as Example 4, and the results are shown in Table 7-2.

stability in aqueous solution, in words	Compound	survival rate after correction for water, 60° C., 1-week storage (100 μM peptide) [%]	survival rate after correction for water, 60° C., 2-week storage (100 μM peptide, 2 weeks) [%]	survival rate after correction for water, 60° C., 2-week storage (Table 7-2) (100 μM peptide, 2 weeks) [%]
	CC[C@H](C)[C@H](NC(=O)CNC(=O)[C@H](Cc1nnn[nH]1)NC(=O)[C@H](CO)NC(=O)[C@H](Cc1c[nH]cn1)NC(C)=O)C(=O)N[C@@H](Cc1ccccc1)C(=O)N[C@H](C(=O)N[C@@H](Cc1nnn[nH]1)C(=O)N[C@@H](C)C(=O)N[C@@H](Cc1ccc(O)cc1)C(=O)N[C@@H](CO)C(=O)N[C@@H](CCCNC(=N)N)C(=O)N[C@@H](Cc1ccc(O)cc1)C(=O)N[C@@H](CCCNC(=N)N)C(=O)N[C@@H](CCCCN)C(=O)N[C@@H](CCC(N)=O)C(=O)N[C@@H](C)C(=O)N[C@@H](C)C(=O)N[C@H](C(=O)N[C@@H](CCCCN)C(=O)N[C@@H](CCCCN)C(=O)N[C@@H](Cc1ccc(O)cc1)C(=O)N[C@@H](CC(C)C)C(=O)N[C@@H](C)C(=O)N[C@@H](C)C(=O)N[C@H](C(=O)N[C@@H](CC(C)C)C(N)=O)C(C)C)C(C)C)[C@@H](C)O [Peptide 27] (Ac-HS[Ala(1H-tetrazol-5-yl)]GIFT[Ala(1H-tetrazol-5-yl)]AYSRYRKQAAVKKYLAAVL-NH2)	96.4	93.5	
further increased stability	CCCC[C@H](NC(=O)[C@H](CCC(N)=O)NC(=O)[C@H](CCCCN)NC(=O)[C@H](CCCNC(=N)N)NC(=O)[C@H](Cc1ccc(O)cc1)NC(=O)[C@H](CCCNC(=N)N)NC(=O)[C@H](CO)NC(=O)[C@H](Cc1ccc(O)cc1)NC(=O)[C@H](CO)NC(=O)[C@H](Cc1nnn[nH]1)NC(=O)[C@@H](NC(=O)[C@H](Cc1ccccc1)NC(=O)[C@@H](NC(=O)CNC(=O)[C@H](Cc1nnn[nH]1)NC(=O)[C@H](CO)NC(=O)[C@H](Cc1c[nH]cn1)NC(C)=O)[C@@H](C)CC)[C@@H](C)O)C(=O)N[C@@H](C)C(=O)N[C@H](C(=O)N[C@@H](CCCCN)C(=O)N[C@@H](CCCCN)C(=O)N[C@@H](Cc1ccc(O)cc1)C(=O)N[C@@H](CC(C)C)C(=O)N[C@@H](C)C(=O)N[C@@H](C)C(=O)N[C@H](C(=O)N[C@@H](CC(C)C)C(N)=O)C(C)C)C(C)C [Peptide 8] (Ac-HS[Ala(1H-tetrazol-5-yl)]GIFT[Ala(1H-tetrazol-5-yl)]SYSRYRKQ[Nle]AVKKYLAAVL-NH2)	98.1	92.9	
	CC[C@H](C)[C@H](NC(=O)CNC(=O)[C@H](Cc1nnn[nH]1)NC(=O)[C@H](C)NC(=O)[C@H](Cc1c[nH]cn1)NC(C)=O)C(=O)N[C@@H](Cc1ccccc1)C(=O)N[C@H](C(=O)N[C@@H](Cc1nnn[nH]1)C(=O)N[C@@H](C)C(=O)N[C@@H](Cc1ccc(O)cc1)C(=O)N[C@@H](CO)C(=O)N[C@@H](CCCNC(=N)N)C(=O)N[C@@H](Cc1ccc(O)cc1)C(=O)N[C@@H](CCCNC(=N)N)C(=O)N[C@@H](CCCCN)C(=O)N[C@@H](CCC(N)=O)C(=O)N[C@@H](CC(C)C)C(=O)N[C@@H](C)C(=O)N[C@H](C(=O)N[C@@H](CCCCN)C(=O)N[C@@H](CCCCN)C(=O)N[C@@H](Cc1ccc(O)cc1)C(=O)N[C@@H](CC(C)C)C(=O)N[C@@H](C)C(=O)N[C@@H](C)C(=O)N[C@H](C(=O)N[C@@H](CC(C)C)C(N)=O)C(C)C)C(C)C)[C@@H](C)O [Peptide 24] (Ac-HA[Ala(1H-tetrazol-5-yl)]GIFT[Ala(1H-tetrazol-5-yl)]AYSRYRKQLAVKKYLAAVL-NH2)	98.1	94.3	
	CC[C@H](C)[C@H](NC(=O)CNC(=O)[C@H](Cc1nnn[nH]1)NC(=O)[C@H](CO)NC(=O)[C@H](Cc1c[nH]cn1)NC(C)=O)C(=O)N[C@@H](Cc1ccccc1)C(=O)N[C@H](C(=O)N[C@@H](Cc1nnn[nH]1)C(=O)N[C@@H](CO)C(=O)N[C@@H](Cc1ccc(O)cc1)C(=O)N[C@@H](CO)C(=O)N[C@@H](CCCNC(=N)N)C(=O)N[C@@H](Cc1ccc(O)cc1)C(=O)N[C@@H](CCCNC(=N)N)C(=O)N[C@@H](CCCCN)C(=O)N[C@@H](C)C(=O)N[C@@H](CC(C)C)C(=O)N[C@@H](C)C(=O)N[C@H](C(=O)N[C@@H](CCCCN)C(=O)N[C@@H](CCCCN)C(=O)N[C@@H](Cc1ccc(O)cc1)C(=O)N[C@@H](CC(C)C)C(=O)N[C@@H](C)C(=O)N[C@@H](C)C(=O)N[C@H](C(=O)N[C@@H](CC(C)C)C(N)=O)C(C)C)C(C)C)[C@@H](C)O [Peptide 17] (Ac-HS[Ala(1H-tetrazol-5-yl)]GIFT[Ala(1H-tetrazol-5-yl)]SYSRYRKALAVKKYLAAVL-NH2)	97.8	93.4	
	CC[C@H](C)[C@H](NC(=O)[C@H](C)NC(=O)[C@H](Cc1nnn[nH]1)NC(=O)[C@H](CO)NC(=O)[C@H](Cc1c[nH]cn1)NS(C)(=O)=O)C(=O)N[C@@H](Cc1ccccc1)C(=O)N[C@H](C(=O)N[C@@H](Cc1nnn[nH]1)C(=O)N[C@@H](CO)C(=O)N[C@@H](Cc1ccc(O)cc1)C(=O)N[C@@H](CO)C(=O)N[C@@H](CCCNC(=N)N)C(=O)N[C@@H](Cc1ccc(O)cc1)C(=O)N[C@@H](CCCNC(=N)N)C(=O)N[C@@H](CCCCN)C(=O)N[C@@H](CCC(N)=O)C(=O)N[C@@H](CC(C)C)C(=O)N[C@@H](C)C(=O)N[C@H](C(=O)N[C@@H](CCCCN)C(=O)N[C@@H](CCCCN)C(=O)N[C@@H](Cc1ccc(O)cc1)C(=O)N[C@@H](CC(C)C)C(=O)N[C@@H](C)C(=O)N[C@@H](C)C(=O)N[C@H](C(=O)N[C@@H](CC(C)C)C(N)=O)C(C)C)C(C)C)[C@@H](C)O [Peptide 30] (Ms-HS[Ala(1H-tetrazol-5-yl)]AIFT[Ala(1H-tetrazol-5-yl)]SYSRYRKQLAVKKYLAAVL-NH2)			92.2
	CC[C@H](C)[C@H](NC(=O)CNC(=O)[C@H](Cc1nnn[nH]1)NC(=O)[C@H](C)NC(=O)[C@H](Cc1c[nH]cn1)NC(C)=O)C(=O)N[C@@H](Cc1ccccc1)C(=O)N[C@H](C(=O)N[C@@H](Cc1nnn[nH]1)C(=O)N[C@@H](CO)C(=O)N[C@@H](Cc1ccc(O)cc1)C(=O)N[C@@H](CO)C(=O)N[C@@H](CCCNC(=N)N)C(=O)N[C@@H](Cc1ccc(O)cc1)C(=O)N[C@@H](CCCNC(=N)N)C(=O)N[C@@H](CCCCN)C(=O)N[C@@H](CCC(N)=O)C(=O)N[C@@H](CC(C)C)C(=O)N[C@@H](C)C(=O)N[C@H](C(=O)N[C@@H](CCCCN)C(=O)N[C@@H](CCCCN)C(=O)N[C@@H](Cc1ccc(O)cc1)C(=O)N[C@@H](CC(C)C)C(=O)N[C@@H](C)C(=O)N[C@@H](C)C(=O)N[C@H](C(=O)N[C@@H](CC(C)C)C(N)=O)C(C)C)C(C)C)[C@@H](C)O [Peptide 14] (Ac-HA[Ala(1H-tetrazol-5-yl)]GIFT[Ala(1H-tetrazol-5-yl)]SYSRYRKQLAVKKYLAAVL-NH2)	96.7	94.5	
	CC[C@H](C)[C@H](NC(=O)CNC(=O)[C@H](Cc1nnn[nH]1)NC(=O)[C@H](CO)NC(=O)[C@H](Cc1c[nH]cn1)NC(C)=O)C(=O)N[C@@H](Cc1ccccc1)C(=O)N[C@H](C(=O)N[C@@H](Cc1nnn[nH]1)C(=O)N[C@@H](CO)C(=O)N[C@@H](Cc1ccc(O)cc1)C(=O)N[C@@H](CO)C(=O)N[C@@H](CCCNC(=N)N)C(=O)N[C@@H](Cc1ccc(O)cc1)C(=O)N[C@@H](CCCNC(=N)N)C(=O)N[C@@H](CCCCN)C(=O)N[C@@H](C)C(=O)N[C@@H](C)C(=O)N[C@@H](C)C(=O)N[C@H](C(=O)N[C@@H](CCCCN)C(=O)N[C@@H](CCCCN)C(=O)N[C@@H](Cc1ccc(O)cc1)C(=O)N[C@@H](CC(C)C)C(=O)N[C@@H](C)C(=O)N[C@@H](C)C(=O)N[C@H](C(=O)N[C@@H](CC(C)C)C(N)=O)C(C)C)C(C)C)[C@@H](C)O [Peptide 28] (Ac-HS[Ala(1H-tetrazol-5-yl)]GIFT[Ala(1H-tetrazol-5-yl)]SYSRYRKAAAVKKYLAAVL-NH2)	94.6	90.5	

— patent US12304932B2, “PACAP stabilized peptide” (SENJU PHARMACEUTICAL CO., LTD., priority 2017, dated 2025)
